Values of other authors as cited in patent US20100104634A1, “PHARMACEUTICAL COMPOSITIONS OF ENTACAPONE” (priority 2006, published 2010).

Conditions: low solubility, low dissolution rate, low bioavailability

Biopharmaceutics Classification system (BCS) class: class IV
Structure (SMILES): CCN(CC)C(=O)/C(C#N)=C/c1cc(O)c(O)c([N+](=O)[O-])c1 [Entacapone, (E)-2-cyano-3-(3,4-dihydroxy-5-nitrophenyl)-N,N-diethyl-2-propenamide]
